What was measured:
Caco-2 monolayer = test: in vitro
Procedure: Validation of the Caco-2 transport experiments required consideration of three parameters, i.e., firstly, to determine the cytotoxic concentrations of synthetic aspalathin, secondly, the concentration of aspalathin required to ensure HPLC detection in the basolateral compartment, and finally, to assess whether the transport of aspalathin is concentration dependent.
Cells were cultured at 37 °C and 5% CO2 in 95% humidified air in Eagle’s Minimum Essential Medium (EMEM) containing sodium […] pyruvate, supplemented with 2 mM L-glutamine, 1% non-essential amino acids and 10% heat inactivated FBS. Cell cultures were split when 70%–80% confluent, using trypsin/ethylenediaminetetraacetic acid (EDTA). The culture medium, pre-warmed to 37 °C, was refreshed every 2–3 days. Cells were seeded at 1 × 10^4 cells/cm^2 and a sub-cultivation ratio of 1:3 was routinely used. Cells were seeded with the addition of 1% penicillin/streptomycin mixture (10,000 units/mL potassium penicillin and 10,000 µg/mL streptomycin sulphate) at 4 × 10^4 cells/cm^2 onto 0.4 µm polycarbonate 6-well inserts with an insert area of 4.52 cm^2. Cells were used for transport experiments when TEER values across wells were >300 Ω, typically 21–23 days post confluence. Only passages 50–60 were used to prevent phenotypic drift.
The cell monolayers were equilibrated briefly with transport buffer, pH 6.0 (HBSS with 2-(N-morpholino) ethanesulphonic acid (MES)) on the apical side and pH 7.4 (HBSS with HEPES) on the basolateral side, to remove traces of the culture media. Following this, transport buffers were added for 30 min prior to the addition of treatment (inhibitors were added during this step when required, as well as during the subsequent treatment incubation step). After equilibration, the plates containing transport medium were incubated for 30 min at 37 °C at 5% CO2 in 95% humidified air and the TEER value of the monolayer determined. […] For basolateral-to-apical compartment studies, 2.4 mL of treatment at the same concentrations in HBSS (pH 7.4), was added to the basolateral compartment.
To assess whether aspalathin was co-transported with glucose, its transport (100 µM) at both high (20.5 mM) and low (5.5 mM) glucose concentrations, mimicking the intestinal lumen glucose concentrations pre- and post-meals, was monitored. This was followed by experiments performed in the presence and absence of SGLT1 (100 µM phloridzin), GLUT2 (100 µM phloretin) and efflux, PgP (100 µM verapamil) inhibitors.
Samples (1.2 mL) were withdrawn from the basolateral or the apical compartment to measure the concentration of aspalathin uptake and efflux, respectively at 0, 0.5, 1, 1.5, and 2 h under sink conditions (the sample aliquot replaced with equal volume of relevant transport buffer). Sample aliquots (350 µL) were frozen in liquid nitrogen after the addition of ascorbic acid (35 µL of 10% solution) and stored at −65 °C until HPLC analysis. Results were corrected for dilution and expressed as cumulative transport (% of initial dose) as a function of time. Papp (cm/s) for bi-directional transport studies was calculated as previously described. Transport of other major flavonoids in the matrices, i.e., nothofagin, the 3-deoxy analogue of aspalathin and its flavone derivatives, orientin and isoorientin, were also determined.
Lucifer yellow (final concentration 0.1 mM) was used as a membrane integrity marker and co-incubated with the compounds and extracts.
HPLC-DAD analysis of samples from the apical and basolateral compartments was performed in duplicate on an Agilent 1200 system as previously described. Basolateral and apical samples taken after 2 h with pure aspalathin were also analysed using LC-MS (parameters described in [42]) to determine whether aspalathin metabolites were formed in the Caco-2 model.
All experiments were performed in triplicate and the data expressed as mean ± SD, unless otherwise indicated.

[1] = Extended Clearance Classification System (ECCS) classification; conditions: weak acid, molecular weight higher than 400 g/mol

With `O=C(CCc1ccc(O)c(O)c1)c1c(O)cc(O)c([C@@H]2O[C@H](CO)[C@@H](O)[C@H](O)[C@H]2O)c1O` [Aspalathin] the “Papp a-b with high glucose” value (Caco-2 monolayer; Caco-2) was 2.90 ± 0.75 × 10^−7 cm/s, the “Papp a-b − Inhibitor” value (Caco-2 monolayer; Caco-2) was 1.73 ± 0.97 ×10^−6 cm/s and the Papp b-a (Caco-2 monolayer; Caco-2) was 2.15 ± 0.23 × 10^—6 cm/s. For the same compound, the “Papp b-a − Inhibitor” value (Caco-2 monolayer; Caco-2) was 2.09 ± 0.23 ×10^−6 cm/s, the “Papp (cm/s) a-b × 10^−6” value (Caco-2 monolayer; buffered solution of synthetic aspalathin, 1 µM) was 2.28 ± 0.09 cm/s × 10^−6 and the “Papp (cm/s) a-b × 10^−6” value (Caco-2 monolayer; from aspalathin-enriched green rooibos extract SB1, 0.38 mg/mL (153, 11, 17, 9 µM aspalathin, nothofagin, isoorientin, orientin)) was 2.00 ± 1.10 cm/s × 10^−6. For the same compound, the “Papp (cm/s) a-b × 10^−6” value (Caco-2 monolayer; from semi-purified fraction PEF1, 0.15 mg/mL (149, 21, 12, 8 µM aspalathin, nothofagin, isoorientin, orientin)) was 2.11 ± 0.20 cm/s × 10^−6 and the ECCS class [1] was 3B.

Source: article PMC6154319, “Intestinal Transport Characteristics and Metabolism of C-Glucosyl Dihydrochalcone, Aspalathin” (Molecules : A Journal of Synthetic Chemistry and Natural …, 2017)
